From patent EP0031221B1, “Cyclic peptide nuclei” (ELI LILLY AND COMPANY, priority 1979, dated 1981)
≈ marks a conversion by molar mass, not a printed value. Like-named read-outs stand apart in the source and are kept apart here. Values belong to the molecule of their own block, whether it stands above or below them. Starred links: 1 amine or outer side, 2 acyl side, 3 side chain; linkers in the order of their positions; H or OH if unused. Positions of bridges follow the written chain, without caps; N, C: chain ends. Non-standard residues stand in square brackets, D forms with d. Residues, ends and D or L forms follow the SMILES beside them. *: point of attachment. Orn(4R-OH,5R-OH) = O=C([C@H](C[C@@H](O)[C@@H](O)N[*:3])N[*:1])[*:2]; hTyr(3S-OH,4S-OH) = N[C@H](C(=O)O)[C@H](O)[C@@H](O)c1ccc(O)cc1; Pro(3S-OH,4S-Me) = C[C@H]1CN[C@H](C(=O)O)[C@H]1O; Benzoyl(4-octyloxy) = CCCCCCCCOc1ccc(C(=O)*)cc1; Gln(3R-OH) = NC(=O)C[C@@H](O)[C@H](N)C(=O)O; Hyp = O=C(O)[C@@H]1C[C@@H](O)CN1; Tridecanoyl = CCCCCCCCCCCCC(=O)*; Myristoyl = CCCCCCCCCCCCCC(=O)*; Lauroyl = CCCCCCCCCCCC(=O)*; 4Abz = Nc1ccc(C(=O)O)cc1

Key:
physchem = conditions: 66% aqueous dimethylformamide, pH 7.32
Neurospora crassa 846 = assay: Agar-plate disc-diffusion test (zone of inhibition); format: cell-based; conditions: methanol suspension 1 mg/ml, 7-mm disc, 24—48 hours at 25—37°C, * = distinct zone with regrowth of organism around disc
Method: (§1) In Table IV activity is measured by the size (diameter in mm) of the observed zone of inhibition of the microorganism produced by the test compound. In Table V activity is measured by the minimal inhibitory concentration (MIC) of the substance (mg/disc) required to inhibit growth of the test organism. Table VI gives the results of the testing in vitro of the p-(n-octyloxy)benzoyl derivative of A-30912A nucleus against five strains of Candida albicans by the agar-dilution method. In Table VI activity is measured by the minimal inhibitory concentration (MIC) of the substance (mg/ml) required to inhibit the test organism.

[1] = system: Saccharomyces pastorianus X—52; assay: as above; format: cell-based; conditions: methanol suspension 1 mg/ml, 7-mm disc, incubation 24—48 hours at 25—37°C
Method: as §1

[2] = system: Trichophyton mentagrophytes A—23; assay: as above; format: cell-based; conditions: read-out: Size of Zone of Inhibition (mm)
Method: as §1

Candida albicans A-26 = assay: Therapeutic activity against systemic C. albicans infection in mice; format: in vivo
Method: The results of in vivo tests to evaluate the effectiveness of the derivatives against an infection caused by Candida albicans A-26 in mice are given in Table VII. In these tests activity is measured by the ED50 value (the dose in mg/kg required to cure 50% of the test animals). Where an ED50 value was not obtained, activity is indicated by the lowest dose at which a significant antifungal effect is observed. In these tests, groups of male albino mice (specific pathogen free), weighing 18 to 20 grams, are infected intravenously with Candida albicans A-26. The animals are X-irradiated 24 hours prior to infection at about 50 roentgens per minute for 8 minutes (400 total dose) to reduce immune responses to the infecting organism. At 0, 4, and 24 hours post infection each group of mice is given graded doses subcutaneously of the test compound as a suspension in 33% polyethylene glycol(PEG)-water. The day of death for each animal is recorded.

in vivo = conditions: mouse, po, 416 mg/kg
Method: (§2) At time intervals, blood samples are taken from the orbital sinus and are assayed for antibiotic activity as follows: A 7-mm disc containing 20 ml of whole blood is placed on agar seeded with Aspergillus montevidensis A35137. After 40 hours incubation at 30°C, zones of inhibition from the blood samples are compared to a standard obtained from the test compound, and the amount of compound in the blood sample is calculated.

[3] = Blood levels after oral administration in mice (bioassay vs. Aspergillus montevidensis); conditions: mouse, 416 mg/kg
Method: as §2

Candida albicans [4] = assay: Agar-dilution MIC against five Candida albicans strains; format: cell-based; conditions: agar-dilution method
Method: as §1

Candida albicans [5] = conditions: characteristics from German Offenlegungschrift 2,628,965 / U.S. Patent 4,173,629; cited from earlier work
[6] = Neurospora crassa 846, read-out: Size of Zone of Inhibition (mm)
[7] = Saccharomyces pastorianus X—52, read-out: Size of Zone of Inhibition (mm)
[8] = Candida albicans, A26, light or radiation study, sc, X-irradiated mice infected i.v. with C. albicans A-26, subcutaneous doses at 0, 4 and 24 hours, lowest dose with significant antifungal effect (survival time), read-out: Lowest Active Dose
[9] = Candida albicans, A26, light or radiation study, sc, X-irradiated mice infected i.v. with C. albicans A-26, subcutaneous doses at 0, 4 and 24 hours post infection, suspension in PEG-water, dose curing 50% of animals, read-out: ED50

SMILES: CCCCCCCCCCCC(=O)Nc1ccc(C(=O)N[C@H]2C[C@@H](O)[C@@H](O)NC(=O)[C@@H]3[C@@H](O)[C@@H](C)CN3C(=O)[C@H]([C@@H](C)O)NC(=O)[C@H]([C@H](O)[C@@H](O)c3ccc(O)cc3)NC(=O)[C@@H]3C[C@@H](O)CN3C(=O)[C@H]([C@@H](C)O)NC2=O)cc1 [Reference Example 7, N-(n-dodecanoyl)-p-aminobenzoyl derivative of A-30912A nucleus] ({Lauroyl-4Abz}-[Orn(4R-OH,5R-OH)]T[Hyp][hTyr(3S-OH,4S-OH)]T[Pro(3S-OH,4S-Me)]; lactam 1-C)
zone of inhibition at 1000 µg/mL (Neurospora crassa 846; Neurospora crassa, 846, 48 h, read-out: Size of Zone of Inhibition (mm), Neurospora crassa 846): 33 mm
zone of inhibition at 1000 µg/mL ([1]; Saccharomyces pastorianus, 48 h, read-out: Size of Zone of Inhibition (mm), Saccharomyces pastorianus X—52): 21 mm
zone of inhibition at 1000 µg/mL ([2]; Trichophyton mentagrophytes, 48 h): 55 mm
ED50 (Candida albicans A-26; Candida albicans, A26, light or radiation study, sc): 15 mg/kg
minimal effective dose (Candida albicans A-26; Candida albicans, A26, light or radiation study, sc, read-out: Lowest Active Dose (mg/kg), X-irradiated mice infected i.v. with C. albicans A-26, subcutaneous doses at 0, 4 and 24 hours, lowest dose with significant antifungal effect (survival time)): 10 mg/kg
concentration at 4 h [3]: 830 µg/mL

SMILES: CCCCCCCCCCCCCC(=O)N[C@H]1C[C@@H](O)[C@@H](O)NC(=O)[C@@H]2[C@@H](O)[C@@H](C)CN2C(=O)[C@H]([C@H](O)CC(N)=O)NC(=O)[C@H]([C@H](O)[C@@H](O)c2ccc(O)cc2)NC(=O)[C@@H]2C[C@@H](O)CN2C(=O)[C@H]([C@@H](C)O)NC1=O [S 31794/F-1] (Myristoyl-[Orn(4R-OH,5R-OH)]T[Hyp][hTyr(3S-OH,4S-OH)][Gln(3R-OH)][Pro(3S-OH,4S-Me)]; lactam 1-C)
antifungal activity (Candida albicans [5]): has antifungal activity, especially against Candida albicans

Continued, in another order:

pKa (physchem): ~7.35
SMILES: C[C@@H](O)[C@@H]1NC(=O)[C@H]([C@H](O)[C@@H](O)c2ccc(O)cc2)NC(=O)[C@@H]2C[C@@H](O)CN2C(=O)[C@H]([C@@H](C)O)NC(=O)[C@@H](N)C[C@@H](O)[C@@H](O)NC(=O)[C@@H]2[C@@H](O)[C@@H](C)CN2C1=O [A-30912A nucleus] (H-[Orn(4R-OH,5R-OH)]T[Hyp][hTyr(3S-OH,4S-OH)]T[Pro(3S-OH,4S-Me)]; lactam 1-C)

concentration at 4 h (in vivo): 100 µg/mL
SMILES: CCCCCCCCCCCCC(=O)N[C@H]1C[C@@H](O)[C@@H](O)NC(=O)[C@@H]2[C@@H](O)[C@@H](C)CN2C(=O)[C@H]([C@@H](C)O)NC(=O)[C@H]([C@H](O)[C@@H](O)c2ccc(O)cc2)NC(=O)[C@@H]2C[C@@H](O)CN2C(=O)[C@H]([C@@H](C)O)NC1=O [Reference Example 1] (Tridecanoyl-[Orn(4R-OH,5R-OH)]T[Hyp][hTyr(3S-OH,4S-OH)]T[Pro(3S-OH,4S-Me)]; lactam 1-C)
zone of inhibition at 1000 µg/mL (Neurospora crassa 846; [6]): 32 mm
zone of inhibition at 1000 µg/mL [1, 7]: 21 mm
zone of inhibition at 1000 µg/mL ([2]; Trichophyton mentagrophytes A—23, methanol suspension 1 mg/ml, 7-mm disc, 24—48 hours at 25—37°C, * = distinct zone with regrowth of organism around disc): 60 mm
minimal effective dose (Candida albicans A-26; [8]): 20 mg/kg
ED50 (Candida albicans A-26; [9]): 34 mg/kg

MIC (Candida albicans [4]; Candida albicans strain A26, read-out: MIC): 0.312 µg/mL (≈ 0.303 µM)
MIC (Candida albicans [4]; Candida albicans strain SBH 16): 0.312 µg/mL (≈ 0.303 µM)
MIC (Candida albicans [4]; Candida albicans strain SBH 28): 0.312 µg/mL (≈ 0.303 µM)
MIC (Candida albicans [4]; Candida albicans strain SBH 29): 0.312 µg/mL (≈ 0.303 µM)
MIC (Candida albicans [4]; Candida albicans strain SBH 31): 0.312 µg/mL (≈ 0.303 µM)
concentration at 4 h [3]: 23000 µg/mL
SMILES: CCCCCCCCOc1ccc(C(=O)N[C@H]2C[C@@H](O)[C@@H](O)NC(=O)[C@@H]3[C@@H](O)[C@@H](C)CN3C(=O)[C@H]([C@@H](C)O)NC(=O)[C@H]([C@H](O)[C@@H](O)c3ccc(O)cc3)NC(=O)[C@@H]3C[C@@H](O)CN3C(=O)[C@H]([C@@H](C)O)NC2=O)cc1 [Reference Example 13, p-(n-octyloxy)benzoyl derivative of A-30912A nucleus] ({Benzoyl(4-octyloxy)}-[Orn(4R-OH,5R-OH)]T[Hyp][hTyr(3S-OH,4S-OH)]T[Pro(3S-OH,4S-Me)]; lactam 1-C)
zone of inhibition at 1000 µg/mL (Neurospora crassa 846; [6]): 23 mm
zone of inhibition at 1000 µg/mL [1, 7]: 18 mm
minimal effective dose (Candida albicans A-26; [8]): 10 mg/kg
ED50 (Candida albicans A-26; [9]): 13 mg/kg
ED50 (Candida albicans A-26; X-irradiated mice infected i.v. with C. albicans A-26, subcutaneous doses at 0, 4 and 24 hours post infection, suspension in PEG-water, dose curing 50% of animals): 22.2 mg/kg
Lowest Active Dose (Candida albicans A-26; X-irradiated mice infected i.v. with C. albicans A-26, subcutaneous doses at 0, 4 and 24 hours, lowest dose with significant antifungal effect (survival time)): >12.5 mg/kg
